Results reported in ChEMBL document CHEMBL1149262, “Monoamine transporter binding, locomotor activity, and drug discrimination properties of 3-(4-substituted-phenyl)tropane-2-carboxylic acid methyl ester isomers” (J Med Chem, 2004).
The source made the active and inactive calls. The calls are words filed in the database; no cut-off is given here.

How the values were obtained:
Mus musculus [1] = test: Locomotor activity in CD1 mouse assessed as stimulation at 30 mg/kg, ip after 1 hr relative to control; assay type: functional; conditions: route intraperitoneal
Mus musculus [2] = test: Locomotor activity in CD1 mouse assessed as stimulation at 1 mg/kg, ip after 3 hrs relative to control; assay type: functional; conditions: route intraperitoneal
Mus musculus [3] = test: Activity in CD1 mouse assessed as flattened body posture at 100 mg/kg, ip after 4 hrs; assay type: functional, organism-based; parameters: dose 100 mg/kg
Rattus norvegicus [4] = test: Drug discrimination effect in CD Albino rat assessed as percent of rat choosing cocaine lever at 5.6 mg/kg, ip; assay type: functional; conditions: route intraperitoneal
Mus musculus [5] = test: Locomotor activity in CD1 mouse assessed as stimulation at 1 mg/kg, ip after 2 hrs relative to control; assay type: functional; conditions: route intraperitoneal
Mus musculus [6] = test: Locomotor activity in CD1 mouse assessed as stimulation at 3 mg/kg, ip after 1 hr relative to control; assay type: functional; conditions: route intraperitoneal
Mus musculus [7] = test: Locomotor activity in CD1 mouse assessed as stimulation at 10 mg/kg, ip after 1 hr relative to control; assay type: functional; conditions: route intraperitoneal
Mus musculus [8] = test: Activity in CD1 mouse assessed as death at 100 mg/kg, ip after 4 hrs; assay type: functional, organism-based; parameters: dose 100 mg/kg
Rattus norvegicus [9] = test: Drug discrimination effect in CD Albino rat assessed as percent of rat choosing cocaine lever at 10 mg/kg, ip; assay type: functional; conditions: route intraperitoneal
Rattus norvegicus [10] = test: Drug discrimination effect in CD Albino rat assessed as percent of rat choosing cocaine lever at 3 mg/kg, ip; assay type: functional; conditions: route intraperitoneal
Mus musculus [11] = test: Locomotor activity in CD1 mouse assessed as stimulation at 10 mg/kg, ip after 2 hrs relative to control; assay type: functional; conditions: route intraperitoneal
Mus musculus [12] = test: Activity in CD1 mouse assessed as convulsions at 100 mg/kg, ip after 4 hrs; assay type: functional, organism-based; parameters: dose 100 mg/kg
Mus musculus [13] = test: Activity in CD1 mouse assessed as hind limb splay at 100 mg/kg, ip after 4 hrs; assay type: functional, organism-based; parameters: dose 100 mg/kg; conditions: Hindlimb
[14] = molecular target: Sodium-dependent noradrenaline transporter (Homo sapiens, UniProt P23975); test: Displacement of [3H]nisoxetine from NET
Sodium-dependent noradrenaline transporter, sequence (P23975 whole entry): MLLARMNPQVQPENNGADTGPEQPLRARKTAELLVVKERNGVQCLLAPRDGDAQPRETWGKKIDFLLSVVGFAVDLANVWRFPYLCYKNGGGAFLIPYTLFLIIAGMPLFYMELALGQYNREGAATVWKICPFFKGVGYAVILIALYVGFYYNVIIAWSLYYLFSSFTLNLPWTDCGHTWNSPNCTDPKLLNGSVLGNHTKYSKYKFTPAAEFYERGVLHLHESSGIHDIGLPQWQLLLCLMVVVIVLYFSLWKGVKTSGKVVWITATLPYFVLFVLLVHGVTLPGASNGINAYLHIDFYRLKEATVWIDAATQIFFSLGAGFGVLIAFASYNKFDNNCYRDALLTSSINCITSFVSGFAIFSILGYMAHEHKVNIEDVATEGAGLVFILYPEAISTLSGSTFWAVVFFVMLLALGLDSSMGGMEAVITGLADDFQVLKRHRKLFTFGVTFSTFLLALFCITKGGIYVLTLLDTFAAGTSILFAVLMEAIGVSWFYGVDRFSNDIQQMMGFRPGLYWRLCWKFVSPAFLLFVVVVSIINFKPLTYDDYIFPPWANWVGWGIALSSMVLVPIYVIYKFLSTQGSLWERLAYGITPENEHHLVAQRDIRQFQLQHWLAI

Mus musculus [15] = test: Locomotor activity in CD1 mouse assessed as stimulation at 30 mg/kg, ip after 3 hrs relative to control; assay type: functional; conditions: route intraperitoneal
Mus musculus [16] = test: Locomotor activity in CD1 mouse assessed as stimulation at 3 mg/kg, ip after 2 hrs relative to control; assay type: functional; conditions: route intraperitoneal
[17] = molecular target: Sodium-dependent dopamine transporter (Homo sapiens, UniProt Q01959); test: Displacement of [3H]WIN-35428 from DAT
Sodium-dependent dopamine transporter, sequence (Q01959 whole entry): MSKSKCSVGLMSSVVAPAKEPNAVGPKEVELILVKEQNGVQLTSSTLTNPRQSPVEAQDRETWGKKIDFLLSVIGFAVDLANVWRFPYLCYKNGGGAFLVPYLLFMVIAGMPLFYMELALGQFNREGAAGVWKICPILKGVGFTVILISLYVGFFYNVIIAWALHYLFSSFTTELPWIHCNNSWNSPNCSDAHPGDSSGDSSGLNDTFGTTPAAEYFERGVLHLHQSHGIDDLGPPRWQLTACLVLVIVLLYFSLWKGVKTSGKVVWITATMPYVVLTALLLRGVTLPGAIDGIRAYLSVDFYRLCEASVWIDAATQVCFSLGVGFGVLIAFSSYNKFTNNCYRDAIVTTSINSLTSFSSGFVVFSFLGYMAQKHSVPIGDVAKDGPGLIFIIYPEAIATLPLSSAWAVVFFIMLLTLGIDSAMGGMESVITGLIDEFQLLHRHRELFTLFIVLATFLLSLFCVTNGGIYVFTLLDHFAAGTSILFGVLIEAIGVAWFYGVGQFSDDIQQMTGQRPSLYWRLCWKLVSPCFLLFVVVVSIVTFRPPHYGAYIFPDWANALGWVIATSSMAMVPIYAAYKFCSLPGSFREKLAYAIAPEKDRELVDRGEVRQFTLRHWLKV

Mus musculus [18] = test: Locomotor activity in CD1 mouse assessed as stimulation at 3 mg/kg, ip after 4 hrs relative to control; assay type: functional; conditions: route intraperitoneal
Mus musculus [19] = test: Locomotor activity in CD1 mouse assessed as stimulation at 1 mg/kg, ip after 1 hr relative to control; assay type: functional; conditions: route intraperitoneal
Mus musculus [20] = test: Locomotor activity in CD1 mouse assessed as stimulation at 3 mg/kg, ip after 3 hrs relative to control; assay type: functional; conditions: route intraperitoneal
Rattus norvegicus [21] = test: Drug discrimination effect in CD Albino rat assessed as percent of rat choosing cocaine lever at 1 mg/kg, ip; assay type: functional; conditions: route intraperitoneal
Mus musculus [22] = test: Locomotor activity in CD1 mouse assessed as stimulation at 10 mg/kg, ip after 4 hrs relative to control; assay type: functional; conditions: route intraperitoneal
Mus musculus [23] = test: Locomotor activity in CD1 mouse assessed as stimulation at 30 mg/kg, ip after 2 hrs relative to control; assay type: functional; conditions: route intraperitoneal
Mus musculus [24] = test: Locomotor activity in CD1 mouse assessed as stimulation at 1 mg/kg, ip after 4 hrs relative to control; assay type: functional; conditions: route intraperitoneal
Mus musculus [25] = test: Locomotor activity in CD1 mouse assessed as stimulation at 10 mg/kg, ip after 3 hrs relative to control; assay type: functional; conditions: route intraperitoneal
Mus musculus [26] = test: Activity in CD1 mouse assessed as ptosis at 100 mg/kg, ip after 4 hrs; assay type: functional, organism-based; parameters: dose 100 mg/kg
Mus musculus [27] = test: Locomotor activity in CD1 mouse assessed as stimulation at 30 mg/kg, ip after 4 hrs relative to control; assay type: functional; conditions: route intraperitoneal
Mus musculus [28] = test: Locomotor activity in ip dosed CD1 mouse in peak hour; assay type: functional
Rattus norvegicus [29] = test: Drug discrimination effect in CD Albino rat assessed as percent of rat choosing cocaine lever at 0.17 mg/kg, ip; assay type: functional; conditions: route intraperitoneal
Rattus norvegicus [30] = test: Cocaine discrimination in ip dosed CD Albino rat; assay type: functional
Mus musculus [31] = test: Locomotor activity in CD1 mouse assessed as stimulation at 0.3 mg/kg, ip after 4 hrs relative to control; assay type: functional; conditions: route intraperitoneal
[32] = molecular target: Sodium-dependent serotonin transporter (Homo sapiens, UniProt P31645)
Sodium-dependent serotonin transporter, sequence (P31645 whole entry): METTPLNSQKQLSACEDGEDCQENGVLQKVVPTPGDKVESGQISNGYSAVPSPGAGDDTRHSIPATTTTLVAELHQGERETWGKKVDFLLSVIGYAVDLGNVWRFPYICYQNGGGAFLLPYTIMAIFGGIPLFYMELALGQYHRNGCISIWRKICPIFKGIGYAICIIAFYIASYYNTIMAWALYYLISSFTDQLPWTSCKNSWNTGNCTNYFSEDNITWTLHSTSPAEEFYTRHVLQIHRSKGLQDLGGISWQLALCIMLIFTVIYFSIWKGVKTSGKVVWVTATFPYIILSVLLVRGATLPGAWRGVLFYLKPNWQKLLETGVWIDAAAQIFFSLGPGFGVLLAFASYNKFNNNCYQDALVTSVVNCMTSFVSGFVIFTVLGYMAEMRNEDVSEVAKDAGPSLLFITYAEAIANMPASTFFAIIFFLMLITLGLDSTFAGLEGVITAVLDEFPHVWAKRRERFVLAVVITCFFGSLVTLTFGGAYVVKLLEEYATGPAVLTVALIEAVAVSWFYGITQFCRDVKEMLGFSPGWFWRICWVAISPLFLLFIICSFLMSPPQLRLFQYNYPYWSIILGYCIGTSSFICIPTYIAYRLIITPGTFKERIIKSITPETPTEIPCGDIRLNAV
Description: Displacement of [3H]paroxetine from 5HTT

Rattus norvegicus [33] = test: Drug discrimination effect in CD Albino rat assessed as percent of rat choosing cocaine lever at 0.3 mg/kg, ip; assay type: functional; conditions: route intraperitoneal
Mus musculus [34] = test: Locomotor activity in CD1 mouse assessed as stimulation at 0.3 mg/kg, ip after 3 hrs relative to control; assay type: functional; conditions: route intraperitoneal
Rattus norvegicus [35] = test: Drug discrimination effect in CD Albino rat assessed as percent of rat choosing cocaine lever at 0.56 mg/kg, ip; assay type: functional; conditions: route intraperitoneal
Mus musculus [36] = test: Activity in CD1 mouse assessed as stereotypy at 100 mg/kg, ip after 4 hrs; assay type: functional, organism-based; parameters: dose 100 mg/kg
Mus musculus [37] = test: Activity in CD1 mouse assessed as hyperactivity at 10 mg/kg, ip after 4 hrs; assay type: functional, organism-based; parameters: dose 10 mg/kg
Mus musculus [38] = test: Activity in CD1 mouse assessed as slight or intermittent hyperactivity at 1 mg/kg, ip after 4 hrs; assay type: functional, organism-based; parameters: dose 1 mg/kg
Mus musculus [39] = test: Locomotor activity in CD1 mouse assessed as stimulation at 0.3 mg/kg, ip after 1 hr relative to control; assay type: functional; conditions: route intraperitoneal
Mus musculus [40] = test: Activity in CD1 mouse assessed as slight or intermittent stereotypy at 1 mg/kg, ip after 4 hrs; assay type: functional, organism-based; parameters: dose 1 mg/kg
Mus musculus [41] = test: Activity in CD1 mouse assessed as stereotypy at 10 mg/kg, ip after 4 hrs; assay type: functional, organism-based; parameters: dose 10 mg/kg
Mus musculus [42] = test: Locomotor activity in CD1 mouse assessed as stimulation at 0.3 mg/kg, ip after 2 hrs relative to control; assay type: functional; conditions: route intraperitoneal
Mus musculus [43] = test: Activity in CD1 mouse assessed as straub tail at 100 mg/kg, ip after 4 hrs; assay type: functional, organism-based; parameters: dose 100 mg/kg

Compound | Activity (Mus musculus [2]) | Activity (Mus musculus [5]) | Activity (Mus musculus [6]) | Activity (Mus musculus [7]) | Activity (Mus musculus [11]) | Activity (Mus musculus [12]) | Ki [14] | Activity (Mus musculus [16]) | Activity (Mus musculus [18]) | Activity (Mus musculus [19]) | Activity (Mus musculus [20]) | Activity (Rattus norvegicus [21]) | Activity (Mus musculus [22]) | Activity (Mus musculus [24]) | Activity (Mus musculus [25]) | further results
COC(=O)[C@H]1[C@H]2CCC(C[C@H]1c1ccc(C)cc1)N2C | 118% | 110% | 6% | 8% | 96% | Active | 1930 nM | 132% | 56% | -15% | 47% | 13% | -36% | -51% | 120% | Activity (Mus musculus [1]): -57%; Activity (Mus musculus [3]): Active; Activity (Rattus norvegicus [4]): 13%; Activity (Mus musculus [8]): Active; Activity (Rattus norvegicus [9]): 0%; Activity (Rattus norvegicus [10]): 0%; Activity (Mus musculus [13]): Active; IC50 [14]: 3850 nM; Activity (Mus musculus [15]): 78%; IC50 [17]: 23.4 nM; Activity (Mus musculus [23]): -36%; Activity (Mus musculus [26]): Active; Activity (Mus musculus [27]): -35%
COC(=O)[C@H]1[C@@H](c2ccc(F)cc2)C[C@H]2CC[C@H]1N2C | 28% | 232% | 633% | 330% | 220% | Active | 503 nM | 558% | 140% | 333% | 199% | 100% | 739% | -29% | 594% | ED50 (Mus musculus [28]): 0.7 mg/kg; Activity (Rattus norvegicus [29]): 0%; ED50 (Rattus norvegicus [30]): 0.29 mg/kg; Activity (Mus musculus [31]): -47%; IC50 [32]: 692 nM; Ki [32]: 63 nM; Activity (Rattus norvegicus [33]): 57%; Activity (Mus musculus [34]): -66%; Activity (Rattus norvegicus [35]): 86%; Activity (Mus musculus [36]): Active; Activity (Mus musculus [37]): Active; Activity (Mus musculus [38]): Active; Activity (Mus musculus [39]): 5%; Activity (Mus musculus [40]): Active; Activity (Mus musculus [41]): Active; Activity (Mus musculus [42]): -33%; Activity (Mus musculus [43]): Active
